The values below come from PubChem BioAssay AID651717 (Broad Institute, 2012).

The test system of the test is mESC Bmi1-luciferase reporter, firefly/renilla ratio, 24 h. Kind of test: Bmi1-luciferase reporter activators in mESC, dose response, esBAF inhibitor project, mouse embryonic stem cells, cherry-pick (AID 651717;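 also: luciferase knocked into Bmi1 locus with EF-1a renilla as cell number control; rising ratio signals esBAF inhibition which derepresses Bmi1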). (In general: Reporter assays use an easily measured gene product as a stand-in for the process of interest.)
As to `CCC(=O)Nc1nc(-c2ccc3c(c2)CC(C)N3S(C)(=O)=O)cs1` (stereo not given), the AC40 is 7.5 µM.
The same measure for `COc1cc2ccccc2cc1C(=O)Nc1ccccc1C`: 1.85 µM; for `Oc1ccc(-c2cccc(-c3ccc(O)cc3)c2)cc1`: 6.78 µM; for `CSc1nnc(NC(=O)C23CC4CC(CC(C4)C2)C3)s1`: 6.47 µM.
The same measure for `Cc1ccc(C(=O)N2CCc3ccccc32)cc1C`: 3.55 µM.
The same measure for `CCC(=O)n1nc(-c2ccc(Cl)cc2)nc1SC`: 3.71 µM; for `Cc1ccc2c(CN(C)Cc3ccccc3)cc(=O)oc2c1`: 1.82 µM; for `COc1ccc(NC(=O)c2csc3c2CCCC3)cc1`: 0.459 µM.
Consider `COc1ccc(-c2csc(Nc3cccc(C)n3)n2)cc1OC`, for which the AC40 is 1.44 µM.
As for `COc1ccc(Cl)cc1C(=O)Nc1ccc(Br)c(C)n1`, the figure is 6.83 µM; as for `Cc1cc(N2CCOCC2)nc2ccc(NC(=O)CCC(=O)N3CCN(c4ccccc4)CC3)cc12`, 11 µM.
Turning to `Cc1ccc(NC(=O)Cc2noc3ccccc23)cc1`, the AC40 is 2.47 µM.
As for `COc1ccc(C(=O)CC(=O)c2ccccc2O)cc1OC`, the figure is 15.1 µM; as for `O=C(NC1CCCCC1)N1CCc2ccccc2C1`, 6.76 µM.
As for `CN(C)c1ccc(-c2csc(C(O)c3ccc(F)cc3)n2)cc1` (stereo not given), the figure is 1.63 µM.
As for `CCN(CC)c1ccc2cc(C(=O)c3cccs3)c(=O)oc2c1`, the figure is 11.6 µM; as for `O=C1c2ccccc2C2N1CCCN2C(=O)c1sc2ccccc2c1Cl` (stereo not given), 4.3 µM.
In the case of `Cc1csc(=O)n1CC(=O)OCc1cccc2ccccc12`, the AC40 is 11.4 µM.
As for `Clc1ccc(OCc2nc(-c3ccncc3)no2)cc1`, the figure is 10.8 µM; as for `COc1ccc(F)cc1-c1cc(C(=O)Nc2cccnc2)[nH]n1`, 3.06 µM.
The same measure for `CC(=O)Nc1ccc(NC(=O)c2cc(-c3ccc(F)cc3C)n[nH]2)cc1`: 7.08 µM; for `COc1cccc(NC(=O)N2CCN(c3cccc(C)c3C)CC2)c1`: 4.88 µM; for `O=C(CC1CCCC1)Nc1ccc(Br)cc1`: 16 µM.
As for `CN=Cc1cc(-c2ccccc2)sc1O`, the figure is 12.9 µM.
On to `CC(C)(O)c1cc2ccc(C#Cc3ccsc3)cc2c(=O)o1`, for which the AC40 is 3.42 µM.
On to `Cc1cc(C)c(N=Cc2c(O)c3ccccc3oc2=O)c(C)c1`, for which the AC40 is 7.95 µM.
The same measure for `COC(=O)c1ccc2[nH]c(C(C)(C)O)c(C)c2c1`: 1.37 µM.
The same measure for `CC(NC(=O)c1cc(COc2cccc(C(F)(F)F)c2)on1)c1nccs1` (stereo not given): 6.45 µM; for `O=C(Nc1ccccc1)c1cc(C2CCCN(C(=O)c3ccccc3)C2)on1` (stereo not given): 4.54 µM; for `Cc1cc(-c2nnco2)c(C)n1-c1ccccc1`: 6.01 µM.
For `Cn1c(SCc2ccccc2)nnc1-c1c[nH]c2ccccc12`, the AC40 is 17.9 µM.
On to `O=C(O)c1cc(-c2ccc(-c3c(-c4ccc5c(c4)OCO5)noc3-c3ccsc3)cc2)nc2ccccc12`, for which the AC40 is 6.89 µM.
For `COc1cc(C)ccc1OCc1cc(C(=O)N2CCN(C3CCCCC3)CC2)no1`, the AC40 was 5.3 µM.
As for `C#CCSc1nnc(-c2ccc(O)cc2)o1`, the figure is 8.15 µM.
As for `CC(=O)Oc1ccc(-c2cc3ccccc3oc2=O)cc1`, the figure is 3.22 µM.
As for `O=C(Nc1ccc(SC(F)F)cc1)c1ccc2c(=O)n3c(nc2c1)CCC3`, the figure is 2.02 µM.
Take `COc1cccc(NC(=O)c2sc3nc4n(c(=O)c3c2C)CCC4)c1`: the AC40 was 2.73 µM.
Consider `CO[C@@H]1CN(C)C(=O)c2cc(NC(=O)c3nc4ccccc4s3)ccc2OC[C@@H](C)N(Cc2cccnc2)C[C@H]1C`, for which the AC40 is 19.8 µM.
The same measure for `CC(C)c1ccc(/C=N/NC(=O)CCNC(=O)c2ccccc2)cc1`: 22.8 µM; for `O=C(NCCO)c1cccc(-c2cnc3c(Nc4cccc(OC(F)(F)C(F)F)c4)nccn23)c1`: 4.46 µM.
As for `O=C(Cc1ccccc1)Nc1nc(-c2cccs2)cs1`, the figure is 8.2 µM.
As for `CC(=O)N1CC2(CC(c3ccccc3F)=NO2)CN1c1ccc(Cl)cc1` (stereo not given), the figure is 19.9 µM.
`CSCc1nc2sc(C(=O)Nc3nc(C)cs3)c(C)c2c(=O)[nH]1`: the AC40 was 4.19 µM.
As for `CCS(=O)(=O)N1Cc2ccccc2CC1C(=O)Nc1cccc(OC)c1` (stereo not given), the figure is 8.28 µM; as for `Cc1ccc(C(=O)NCCc2nnc(SCC(=O)Nc3nc(-c4ccccc4)cs3)n2C)cc1`, 17.2 µM; as for `COc1ccc(NC(=O)c2cc(-c3cccs3)on2)cc1`, 3.06 µM.
The same measure for `O=C(NCc1ccccc1)c1cc(-c2cccc(O)c2)on1`: 12.6 µM; for `COc1cc2ccccc2cc1C(=O)Nc1ccc(Br)cn1`: 0.489 µM.
Regarding `CSc1ccc(/C=N/NC(=O)c2ccccc2Cl)cc1`, the AC40 was 6.47 µM.
As for `Cc1cccc(NC(=O)C2C3CCCCC32)c1` (stereo not given), the figure is 4.55 µM.
With `N#Cc1ccc(C=NN2CCCCCC2)cc1`, the AC40 is 2.62 µM.
`C(=NOCc1ccccc1)c1cccnc1`: the AC40 was 4.28 µM.
Take `O=C(c1ccc2ccccc2c1)N1CCc2ccccc21`: the AC40 was 8.41 µM.
The same measure for `CCSc1nnc(Nc2ccccc2)s1`: 11.1 µM; for `COc1ccc2c(c1)nc(-c1cccc(Br)c1)c(=O)n2C(c1ccccn1)c1nc2ccccc2[nH]1` (stereo not given): 2.94 µM; for `COc1ccc(CN(C(=O)CSc2nnc(-c3c[nH]c4ccccc34)o2)c2ccc(F)cc2)cc1OC`: 7.04 µM.
The same measure for `COc1cccc(NC(=O)C(=O)NCCC2CCCCN2S(=O)(=O)c2cccs2)c1` (stereo not given): 3.86 µM; for `CC(C)c1ccc(CNc2ncc(Br)cn2)cc1`: 4.25 µM; for `O=C1CCCc2c1sc1nc3n(c(=O)c21)CCCCC3`: 4.12 µM.
As for `CC(=O)Nc1ccc(NC(=O)c2cccc(-c3cc4ccccc4oc3=O)c2)cc1`, the figure is 9.75 µM.
Turning to `COc1cc2c(cc1NC(=O)C(C)OC(=O)/C=C/c1ccc(OC(F)F)cc1)oc1ccccc12` (stereo not given), the AC40 is 3.91 µM.
The same measure for `Cc1ccc(S(=O)(=O)N2CCN(C(=O)c3ccc4ccccc4n3)CC2)c(C)c1`: 6.53 µM; for `COc1ccc(C(=O)NCc2ccc(-c3nc4ccccc4s3)cc2)cc1`: 6.13 µM; for `NC(=O)c1ccc(CSc2nc3ccccc3s2)cc1`: 4.64 µM.
As for `COc1ccc(C(=O)N=c2sc3ccccc3n2C)cc1OC`, the figure is 2.13 µM; as for `Clc1ccc(-c2cn3cccnc3n2)cc1Cl`, 3.56 µM; as for `COc1cc(/C=N/NC(=O)c2nnn(-c3nonc3N)c2C)ccc1OCc1ccc(Cl)cc1`, 19.7 µM.
The same measure for `O=C(c1cc(-c2ccc(Cl)cc2)on1)N1CCN(c2ccccc2)CC1`: 6.4 µM; for `COc1ccccc1NC(=O)Nc1nc(CC(=O)Nc2ccc(N(C)C)cc2)cs1`: 8.78 µM.
For the compound `c1ccc(CCc2nc(-c3cccnc3)no2)cc1`, the AC40 was 1.64 µM.
The same measure for `Cc1ccc(NC(=O)c2ccnc(C(C)(C)C)c2)cc1`: 1.95 µM; for `COc1cc(C2Nc3cc(Cl)c(S(N)(=O)=O)cc3S(=O)(=O)N2)ccc1OCc1ccccc1` (stereo not given): 3.48 µM.
The same measure for `COc1ccccc1CNC(=O)C[C@@H]1CC[C@@H]2[C@H](COC[C@H](O)CN2C(=O)Nc2ccc(Cl)cc2)O1`: 1.36 µM; for `CC(=O)c1sc(Nc2ccc(Oc3ccccc3)cc2)nc1C`: 2.08 µM; for `COc1cc2ccccc2cc1C(=O)NC1CCCC1`: 8.82 µM.
The same measure for `O=C(COC(=O)[C@H](Cc1c[nH]c2ccccc12)NC(=O)c1ccc(Cl)cc1)Nc1ccc2c(c1)OCO2`: 10.5 µM; for `CCCN1C[C@@H](C)[C@H](OC)CN(C)C(=O)c2cc(NC(=O)c3ccccc3F)ccc2OC[C@H]1C`: 5.77 µM.
As for `O=c1c2ccccc2sc2ccccc12`, the AC40 is 2.41 µM.
As for `Oc1ccc(-c2nccc(-c3ccccn3)n2)cc1`, the figure is 3.66 µM.
The same measure for `O=C(O)c1cncc(C#CCC2CCCCC2)c1`: 15.6 µM; for `COC(=O)c1ccc(CN2C(=O)NC3(CCCCC3)C2=O)cc1`: 7.87 µM.
As for `CCc1cc(CNC(=O)c2cc(COc3ccc(C)nc3)on2)on1`, the figure is 6.87 µM; as for `OC(c1ccccc1)c1nc(/C=C/c2ccccc2)cs1` (stereo not given), 4.88 µM; as for `O=C(Nc1ccccn1)c1c(O)c2cccc3c2n(c1=O)CCC3`, 18.4 µM.
On to `Cc1ccnc(NC(=O)c2ccc(Cl)c(S(=O)(=O)N3CCCCC3)c2)c1`, for which the AC40 was 11.7 µM.
As for `Cc1cc(N2CCCCC2)nc2ccc(NC(=O)CCC(=O)NCCC(C)C)cc12`, the figure is 16.6 µM; as for `CCN(CC(=O)NCc1ccc(F)cc1)C(=O)c1ccc(COc2ccccc2)cc1`, 25.2 µM.
The same measure for `CS(=O)(=O)N1CCN(c2nc3ccccc3s2)CC1`: 1.24 µM; for `CSc1ccccc1NC(=O)c1ccc(N2CCCC2=O)cc1`: 2.01 µM; for `c1ccc(-n2nnc3ccccc32)nc1`: 11.2 µM.
As for `c1ccc2nc3c(ccc4ccccc43)cc2c1`, the figure is 0.939 µM.
Regarding `COc1ccccc1C(=O)Nn1cnc2ccccc2c1=O`, the AC40 was 8.5 µM.
As for `COc1ccc(-c2cc(C(=O)Nc3ccc(C(N)=O)cc3)c3ccccc3n2)cc1`, the figure is 4.1 µM.
The same measure for `CC1CCCC(C)N1CCCNC(=O)c1ccc2nc(N3CCCCC3)sc2c1` (stereo not given): 9 µM; for `COc1ccc(-c2cnc(C(O)c3ccccc3)[nH]2)cc1` (stereo not given): 1.15 µM; for `CN(Cc1nccs1)C(=O)c1ccc2nc(Cc3ccccc3F)oc2c1`: 0.952 µM.
As for `Cc1ccc(/C(N)=N/OC(=O)CCc2ccccc2)cc1`, the figure is 11 µM.
For `CN(Cc1nccn1C)C(=O)c1ccc2nc(Cc3ccccc3F)oc2c1`, the AC40 was 5.37 µM.
As for `CC(=O)Nc1ccc(-c2nc3c(C)cccc3[nH]2)cc1`, the figure is 1.25 µM.
As for `COc1ccc2[nH]cc(C(=O)CNc3nc(C)cs3)c2c1`, the AC40 was 10.3 µM.
For `O=C(NN=Cc1ccc2c(c1)CCC2)c1ccccc1O`, the AC40 is 2.45 µM.
Regarding `C1=NN(c2ccccc2)C=NN1c1ccccc1`, the AC40 was 1.17 µM.
On to `O=C(N/N=C/c1ccc(Cl)cc1)Nc1ccccc1`, for which the AC40 is 5.34 µM.
As for `Nc1ccc(C(=O)OCc2nc3ccccc3[nH]2)cc1`, the figure is 19.1 µM; as for `O=C(Nc1cccc(O)c1)c1ccc(Br)c(S(=O)(=O)N2CCCCC2)c1`, 17.6 µM.
